This note sets out measurements from US20230348418A1, “ISOINDOLINONE COMPOUNDS” (Monte Rosa Therapeutics, Inc., priority 2021, published 2023).

The structures appear in SMILES notation. Read-outs that look alike come from different tables or passages of the source.

This assay deals with T1, Full length wild-type cereblon CRBN (Homo sapiens, UniProt Q96SW2).
T1 construct: Full length wild-type cereblon CRBN (80.0 nM, 10 μL) was incubated in assay buffer
The assay can be described thus: Fluorescence polarization (FP) assay, cereblon binding. The text has this:
Compound activity was monitored in a fluorescence polarization (FP) homogeneous assay using 1-[5-({2-[2-(2-{[2-(2,6-dioxopiperidin-3-yl)-1,3-dioxo-2,3-dihydro-1H-isoindol-4-yl]oxy}acetamido)ethoxy]ethyl}carbamoyl)pentyl]-3,3-dimethyl-2-[(1E,3E)-5-[(2E)-1,3,3-trimethyl-5-sulfo-2,3-dihydro-1H-indol-2-ylidene]penta-1,3-dien-1-yl]-3H-indol-1-ium-5-sulfonate as a fluorescent probe. Unless otherwise stated, all reagents were purchased from Sigma Aldrich. […] Full length wild-type cereblon CRBN (80.0 nM, 10 μL) was incubated in assay buffer containing 20 mM HEPES (pH 8.0), […], 0.5 mM TCEP and 0.05% Tween 20 in the presence or absence of compound (300 nL). Inhibitors were stored as 10 mM DMSO stocks in an inert environment (low humidity, dark, low oxygen, room temperature) using the Storage Pod System. […] Following incubation at room temperature for 30 min, the assay was initiated by dispensing the probe to a final concentration of […] (2.5 nL of a 20 μM stock) using the Echo E5XX. […] The FP signal was subsequently normalized to the no-compound control (i.e., DMSO). Analysis and IC50 values were derived using Dotmatics (Dotmatics UK) software.

[1] abbreviates: bounds stated in the text lists b2059-b2061, read-out: IC50 value.
Setting [2] is: cereblon binding, class code, read-out: rFP IC50.
Setting [3] is: IC50 value, bounds stated in the text lists b2059-b2061.
Where [4] appears, read: rFP IC50 [nM], cereblon binding, class code.

T1 sequence (Q96SW2 whole entry): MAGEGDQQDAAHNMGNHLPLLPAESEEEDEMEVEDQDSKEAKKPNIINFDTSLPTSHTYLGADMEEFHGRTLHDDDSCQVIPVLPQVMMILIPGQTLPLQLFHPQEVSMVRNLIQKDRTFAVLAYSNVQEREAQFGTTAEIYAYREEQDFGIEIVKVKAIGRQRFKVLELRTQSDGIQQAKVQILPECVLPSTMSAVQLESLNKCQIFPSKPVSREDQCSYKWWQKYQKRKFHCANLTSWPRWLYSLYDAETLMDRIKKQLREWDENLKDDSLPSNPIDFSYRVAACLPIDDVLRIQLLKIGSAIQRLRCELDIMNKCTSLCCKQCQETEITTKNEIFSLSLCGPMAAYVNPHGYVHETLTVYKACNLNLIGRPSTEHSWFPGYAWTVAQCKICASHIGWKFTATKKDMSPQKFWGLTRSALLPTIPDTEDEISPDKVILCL

A word on the IC50: it is the midpoint of a concentration-inhibition curve. Turning to `O=C1CCC(N2Cc3ccc(COC(=O)Nc4ccc(C5CCC5)nc4)cc3C2=O)C(=O)N1` (stereo not drawn) [Compound 105], the IC50 runs as follows: under setting [1], less than 1700 nM; under setting [2], 500 to 1100 nM. On the same counts, the results for `O=C1CCC(N2Cc3ccc(COC(=O)Nc4cc(OCCN5CCOCC5)cc(OC(F)(F)F)c4)cc3C2=O)C(=O)N1` (stereo not drawn) [Compound 106] are less than 1700 nM and 500 to 1100 nM. As for `O=C1CCC(N2Cc3ccc(COC(=O)Nc4ccc(N5CCC5)nc4)cc3C2=O)C(=O)N1` (stereo not drawn) [Compound 107], the half-maximal inhibitory concentration (IC50) under setting [1] is less than 1100 nM. For the molecule `Cc1cc(NC(=O)OCc2ccc3c(c2)C(=O)N(C2CCC(=O)NC2=O)C3)cc(C)c1C#N` (stereo not drawn) [Compound 108], under setting [3], the IC50 was less than 1100 nM.

As for `N#Cc1cc(Cl)cc(NC(=O)OCc2ccc3c(c2)C(=O)N(C2CCC(=O)NC2=O)C3)c1` (stereo not drawn) [Compound 111, (2-(2,6-dioxopiperidin-3-yl)-3-oxoisoindolin-5-yl)methyl (3-chloro-5-cyanophenyl)carbamate], the concentration for half-maximal inhibition (IC50) under setting [1] was less than 1100 nM. As to `Cc1cc(C#N)cc(NC(=O)OCc2ccc3c(c2)C(=O)N(C2CCC(=O)NC2=O)C3)c1` (stereo not drawn) [Compound 112, (2-(2,6-dioxopiperidin-3-yl)-3-oxoisoindolin-5-yl)methyl (3-cyano-5-methylphenyl)carbamate], under setting [1], the half-inhibitory concentration (IC50) is less than 1100 nM. Take `O=C1CCC(N2Cc3ccc(COC(=O)Nc4ccc5c(c4)CC(F)(F)O5)cc3C2=O)C(=O)N1` (stereo not drawn) [Compound 113]: under setting [3], the concentration for half-maximal inhibition (IC50) is less than 1100 nM. On the same count and under the same terms, with `CC(C)(C)c1cc(NC(=O)OCc2ccc3c(c2)C(=O)N(C2CCC(=O)NC2=O)C3)ccn1` (stereo not drawn) [Compound 114] the figure was less than 1100 nM.

For the molecule `Cc1cc(NC(=O)OCc2ccc3c(c2)C(=O)N(C2CCC(=O)NC2=O)C3)cc(F)c1C` (stereo not drawn) [Compound 117], the IC50 was less than 1100 nM under setting [3] and 500 to 1100 nM under setting [4].

For `Cc1cc(NC(=O)OCc2ccc3c(c2)C(=O)N(C2CCC(=O)NC2=O)C3)cc(C(C)(C)C)n1` (stereo not drawn) [Compound 118], the IC50 reads like this: under setting [3], less than 1100 nM; under setting [4], 500 to 1100 nM.

For the molecule `Cc1cc(Cl)c(NC(=O)OCc2ccc3c(c2)C(=O)N(C2CCC(=O)NC2=O)C3)cc1Cl` (stereo not drawn) [Compound 119], the IC50 reads like this: under setting [3], less than 1100 nM; under setting [4], 500 to 1100 nM.

Take `CC(C)(C)C12CC(NC(=O)OCc3ccc4c(c3)C(=O)N(C3CCC(=O)NC3=O)C4)(C1)C2` (stereo not drawn) [Compound 120, (2-(2,6-dioxopiperidin-3-yl)-3-oxoisoindolin-5-yl)methyl (3-(tert-butyl)bicyclo[1.1.1]pentan-1-yl)carbamate]: the half-inhibitory concentration (IC50) under setting [1] is less than 1100 nM and the IC50 under setting [2] was in the range of 500 to 1100 nM. Turning to `Cc1cc(C)c(F)c(NC(=O)OCc2ccc3c(c2)C(=O)N(C2CCC(=O)NC2=O)C3)c1` (stereo not drawn) [Compound 122, (2-(2,6-dioxopiperidin-3-yl)-3-oxoisoindolin-5-yl)methyl (2-fluoro-3,5-dimethylphenyl)carbamate], the concentration for half-maximal inhibition (IC50) under setting [1] was less than 1100 nM. Turning to `Cc1cc(C)c(NC(=O)OCc2ccc3c(c2)C(=O)N(C2CCC(=O)NC2=O)C3)cc1Cl` (stereo not drawn) [Compound 123, (2-(2,6-dioxopiperidin-3-yl)-3-oxoisoindolin-5-yl) methyl (5-chloro-2,4-dimethylphenyl)carbamate], the IC50 under setting [1] was less than 1100 nM and the IC50 under setting [2] lay within 500 to 1100 nM. Take `Cc1cc(NC(=O)OCc2ccc3c(c2)C(=O)N(C2CCC(=O)NC2=O)C3)cc(C)c1F` (stereo not drawn) [Compound 124, (2-(2,6-dioxopiperidin-3-yl)-3-oxoisoindolin-5-yl)methyl (4-fluoro-3,5-dimethylphenyl)carbamate]: under setting [1], the half-maximal inhibitory concentration (IC50) is less than 1100 nM.

Regarding `O=C1CCC(N2Cc3ccc(COC(=O)NC45CC(c6ccccc6)(C4)C5)cc3C2=O)C(=O)N1` (stereo not drawn) [Compound 126, (2-(2,6-dioxopiperidin-3-yl)-3-oxoisoindolin-5-yl)methyl (3-phenylbicyclo[1.1.1]pentan-1-yl carbamate], under setting [1], the IC50 was less than 1100 nM.

With `Cc1c(F)cc(NC(=O)OCc2ccc3c(c2)C(=O)N(C2CCC(=O)NC2=O)C3)cc1F` (stereo not drawn) [Compound 127, (2-(2,6-dioxopiperidin-3-yl)-3-oxoisoindolin-5-yl)methyl (3,5-difluoro-4-methylphenyl)carbamate], the 50% inhibitory concentration (IC50) by setting is: under setting [1], less than 1700 nM; under setting [2], 1100 to 1700 nM. With `Cc1ccc(OC(F)(F)F)cc1NC(=O)OCc1ccc2c(c1)C(=O)N(C1CCC(=O)NC1=O)C2` (stereo not drawn) [Compound 128], the half-maximal inhibitory concentration (IC50) runs as follows: under setting [3], less than 1100 nM; under setting [4], 500 to 1100 nM. `Cc1ccc(NC(=O)OCc2ccc3c(c2)C(=O)N(C2CCC(=O)NC2=O)C3)cc1C` (stereo not drawn) [Compound 129] came in with a half-maximal inhibitory concentration (IC50) under setting [3] of less than 1100 nM. With `O=C1CCC(N2Cc3ccc(COC(=O)NC4COC(c5ccccc5)OC4)cc3C2=O)C(=O)N1` (stereo not drawn) [Compound 130], the IC50 is, setting by setting: under setting [3], less than 1100 nM; under setting [4], 500 to 1100 nM. Turning to `CC(C)(C)c1ccc(NC(=O)OCc2ccc3c(c2)C(=O)N(C2CCC(=O)NC2=O)C3)nc1` (stereo not drawn) [Compound 131, (2-(2,6-dioxopiperidin-3-yl)-3-oxoisoindolin-5-yl)methyl (5-(tert-butyl)pyridin-2-yl)carbamate], the IC50 runs as follows: under setting [1], less than 1100 nM; under setting [2], 500 to 1100 nM.

Regarding `O=C1CCC(N2Cc3ccc(COC(=O)Nc4cc(F)c(F)c(Cl)c4)cc3C2=O)C(=O)N1` (stereo not drawn) [Compound 132], the 50% inhibitory concentration (IC50) is less than 1100 nM under setting [3] and 500 to 1100 nM under setting [4]. Turning to `Cc1ccc(NC(=O)OCc2ccc3c(c2)C(=O)N(C2CCC(=O)NC2=O)C3)cc1F` (stereo not drawn) [Compound 133, (2-(2,6-dioxopiperidin-3-yl)-3-oxoisoindolin-5-yl)methyl (3-fluoro-4-methylphenyl)carbamate], the half-inhibitory concentration (IC50) by setting is: under setting [1], less than 1100 nM; under setting [2], 500 to 1100 nM. With `O=C1CCC(N2Cc3ccc(COC(=O)Nc4ccccc4)cc3C2=O)C(=O)N1` (stereo not drawn) [Compound 138, (2-(2,6-dioxopiperidin-3-yl)-3-oxoisoindolin-5-yl)methyl phenylcarbamate], the concentration for half-maximal inhibition (IC50) under setting [1] was less than 1100 nM and the concentration for half-maximal inhibition (IC50) under setting [2] lay within 500 to 1100 nM. `O=C1CCC(N2Cc3ccc(COC(=O)Nc4cc(C(F)(F)F)ns4)cc3C2=O)C(=O)N1` (stereo not drawn) [Compound 139] came in with a 50% inhibitory concentration (IC50) under setting [3] of less than 1100 nM and an IC50 under setting [4] of 500 to 1100 nM. Consider `Cc1cc(F)c(NC(=O)OCc2ccc3c(c2)C(=O)N(C2CCC(=O)NC2=O)C3)cc1Cl` (stereo not drawn) [Compound 141, (2-(2,6-dioxopiperidin-3-yl)-3-oxoisoindolin-5-yl)methyl (5-chloro-2-fluoro-4-methylphenyl)carbamate], for which the 50% inhibitory concentration (IC50) was less than 1100 nM under setting [1] and 500 to 1100 nM under setting [2].

Regarding `CC(C)(C)c1ccc(NC(=O)OCc2ccc3c(c2)C(=O)N(C2CCC(=O)NC2=O)C3)c(F)c1` (stereo not drawn) [Compound 142, (2-(2,6-dioxopiperidin-3-yl)-3-oxoisoindolin-5-yl)methyl (4-(tert-butyl)-2-fluorophenyl)carbamate], the IC50 under setting [1] is less than 1100 nM and the half-inhibitory concentration (IC50) under setting [2] lay in the range of 500 to 1100 nM. On the same counts, the results for `Cc1cc(Cl)cc(NC(=O)OCc2ccc3c(c2)C(=O)N(C2CCC(=O)NC2=O)C3)c1` (stereo not drawn) [Compound 144, (2-(2,6-dioxopiperidin-3-yl)-3-oxoisoindolin-5-yl)methyl (3-chloro-5-methylphenyl)carbamate] are less than 1700 nM and 1100 to 1700 nM.

For the molecule `O=C1CCC(N2Cc3ccc(COC(=O)Nc4cc(OC(F)(F)F)ccc4F)cc3C2=O)C(=O)N1` (stereo not drawn) [Compound 145, (2-(2,6-dioxopiperidin-3-yl)-3-oxoisoindolin-5-yl)methyl(2-fluoro-5-(trifluoromethoxy)phenyl)carbamate], the IC50 is less than 1100 nM (IC50 value) and 500 to 1100 nM (rFP IC50 [nM]). Turning to `Cc1cc(F)cc(NC(=O)OCc2ccc3c(c2)C(=O)N(C2CCC(=O)NC2=O)C3)c1` (stereo not drawn) [Compound 146, (2-(2,6-dioxopiperidin-3-yl)-3-oxoisoindolin-5-yl)methyl (3-fluoro-5-methylphenyl) carbamate], the half-inhibitory concentration (IC50) is, setting by setting: under setting [1], less than 1700 nM; under setting [2], 1100 to 1700 nM. On the same counts, the results for `CCc1nscc1NC(=O)OCc1ccc2c(c1)C(=O)N(C1CCC(=O)NC1=O)C2` (stereo not drawn) [Compound 147] are less than 1100 nM and 500 to 1100 nM. On to `O=C1CCC(N2Cc3ccc(COC(=O)Nc4ccnc(-c5ccccc5)c4)cc3C2=O)C(=O)N1` (stereo not drawn) [Compound 149], for which, under setting [3], the 50% inhibitory concentration (IC50) was less than 1100 nM. Consider `CC1(c2ccc(NC(=O)OCc3ccc4c(c3)C(=O)N(C3CCC(=O)NC3=O)C4)cn2)CC1` (stereo not drawn) [Compound 152, (2-(2,6-dioxopiperidin-3-yl)-3-oxoisoindolin-5-yl)methyl (6-(1-methylcyclopropyl)pyridin-3-yl)carbamate], for which the IC50 under setting [1] is less than 1100 nM. `CC(C)(C)c1cccc(NC(=O)OCc2ccc3c(c2)C(=O)N(C2CCC(=O)NC2=O)C3)c1` (stereo not drawn) [Compound 153, (2-(2,6-dioxopiperidin-3-yl)-3-oxoisoindolin-5-yl)methyl (3-(tert-butyl)phenyl)carbamate]: the concentration for half-maximal inhibition (IC50) by setting is: under setting [1], less than 1100 nM; under setting [2], 500 to 1100 nM. Take `C[C@H]1CCCN1c1ccc(NC(=O)OCc2ccc3c(c2)C(=O)N(C2CCC(=O)NC2=O)C3)cn1` (stereo partly drawn) [Compound 156, (2-(2,6-dioxopiperidin-3-yl)-3-oxoisoindolin-5-yl)methyl (6-((S)-2-methylpyrrolidin-1-yl)pyridin-3-yl)carbamate]: the IC50 under setting [1] was less than 1100 nM.
